Key:
[1] = system: chick embryo chorioallantoic membrane; assay: chick embryo chorioallantoic membrane (CAM) vascularization; type: in vivo
Procedure: FIGS. 2a, 2b and 2c: Effect of AcSDKP (SEQ ID NO: 1) and of analogues thereof on the vascularization of the chick embryo chorioallantoic membrane (CAM). FIG. 2A discloses SEQ ID NOS: 1 and 27, respectively, in order of appearance.
The following experiments were carried out on the chick embryo chorioallantoic membrane experimental model and the activity of AcSDKP (SEQ ID NO: 1) and of analogues thereof was tested on this model. […] The increase in the density of vascularization varies depending on the dose studied, with a maximum effect for AcSDKP (SEQ ID NO: 1) and AcSDKP-NH2 (SEQ ID NO: 27) at concentrations of between 10^−9 M and 10^−7 M (FIGS. 2a, 2b and 2c).

[2] = system: endothelial cells (EA.hy926); assay: formation of vascular tubes in Matrigel in vitro; type: cell-based, human; settings: 6 hours exposure
Procedure: FIG. 3: Effect of AcSDKP (SEQ ID NO: 1) on the formation of vascular tubes, in vitro, by endothelial cells (EA.hy926) in Matrigel.
The maximum stimulations, corresponding to an increase of 60% and 58%, respectively, were observed after exposure of the cells to the tetrapeptide for 6 hours.

[3] = system: total marrow cells; assay: adhesion of marrow cells to components of the extracellular matrix, in vitro; type: cell-based; settings: fibronectin, collagen IV and laminin
Excerpt: The optimum concentration of AcSDKP (SEQ ID NO: 1) in this type of model is between 10^−6 and 10^−8 M.

[4] = system: endothelial cells originating from bovine brain capillaries (BBC); assay: growth of endothelial cells originating from bovine brain capillaries, in vitro; type: cell-based
Excerpt: (§1) FIGS. 1a, 1b and 1c: AcSDKP (SEQ ID NO: 1) stimulates the growth of bovine (BBC) and human (HUVEC and EA.hy926) endothelial cells, in vitro.
(§2) The mitogenic effect of AcSDKP (SEQ ID NO: 1) manifests itself at concentrations ranging between 10^−6 and 10^−11 M, with a maximum for 10^−9 M.

[5] = system: HUVEC human endothelial cells; assay: adhesion of HUVEC to extracellular matrix components, preliminary experiments; type: cell-based; settings: compared with marrow cell results
Excerpt: It is clearly established that these interactions between endothelial cells and the extracellular matrix are determinant for the neovascularization and are involved at various steps of angiogenesis. Specifically, the extracellular matrix influences the proliferation and the migration of vascular endothelial cells, and also their ability to differentiate and to organize into capillaries in order to form new functional vessels suited to their tissue microenvironment.

[6] = system: Sprague-Dawley rat; assay: vascular invasion in vivo of Matrigel placed under the skin
Excerpt: In vivo, AcSDKP (SEQ ID NO: 1) induces, in a dose-dependent manner, the vascular invasion of Matrigel placed under the skin of the animal (Sprague-Dawley rat). In this experiment, AcSDKP (SEQ ID NO: 1) was mixed with the Matrigel before implantation. Seven days later, the animals were sacrificed and the Matrigel samples were taken and fixed in formol, and were the subject of a histological study. […] For the quantification, the vascular sections were counted on 10 consecutive fields (surface area =32 mm^2) from the richest zone.

[7] = system: Sprague-Dawley rats; assay: pedicled ventral skin flap model; type: in vivo, rat; settings: 5 μg/kg/injection s.c., after surgery then 5 times at 12 hour intervals
Excerpt: Given the ability of angiogenic factors to stimulate, in vivo, the formation of new vessels in lesioned regions which are characterized by a deficiency in vascularization, we studied the effectiveness of AcSDKP (SEQ ID NO: 1) in promoting tissue lesion repair, using a skin flap model. In fact, the distal necrosis of skin flaps generally results from rupturing of the vascular network and therefore from an insufficiency of arterial flow, which poses considerable problems in the fields of plastic and reconstructive surgery.
Pedicled ventral skin flaps (6×6 cm) (left inguinal pedicle) were made in the Sprague-Dawley rats.
AcSDKP (SEQ ID NO: 1) was administered at the dose of 5 μg/kg/ injection (250 μl/injection) immediately after the surgical intervention, and then again 5 times at 12 hour intervals. […] From a macroscopic point of view, the decrease in necrosis is accompanied by the increase in the density of the vascularization over the internal surface of the flaps.

[8] = system: human umbilical cord vein endothelial cells (HUVEC); assay: growth of human umbilical cord vein endothelial cells, in vitro; type: cell-based
Excerpt: as §1, §2

[9] = system: immortalized HUVEC cell line (EA.hy926); assay: growth of immortalized HUVEC cell line, in vitro; type: cell-based, human
Excerpt: as §1, §2

[10] = system: normal rats; assay: angiography of abdominal walls after injection into abdominal muscle; type: in vivo, rat
Procedure: In these experiments, AcSDKP (SEQ ID NO: 1) was injected into the abdominal muscle in normal rats (treatment twice a day for […]). […] It should be emphasized that this effect remains over time (observations made one month after the start of treatment).

CH3CO-Ser-Asp-Lys-Pro-NH2 [AcSDKP-NH2]
neovascularization of CAM [1]: significantly induced neovascularization

CH3CO-Ser-Asp-Lys-Pro-OH (Ac-SDKP-OH) [AcSDKP, tetrapeptide acetyl-Ser-Asp-Lys-Pro]
increase of total surface area of the vascular network compared to control (maximum stimulation) ([2]; 10^−9 M): 60% | increase of total surface area of the vascular network compared to control (maximum stimulation) ([2]; 10^−11 M): 58% | adhesion of marrow cells to extracellular matrix components [3]: increases the adhesion | concentration of maximum mitogenic effect [4]: 10^−9 M | growth of endothelial cells ([4]; in vitro): significantly stimulates the growth | adhesion to extracellular matrix components [5]: Comparable results | Number of vessels (% increase compared to control) ([6]; 10^−5 M, Exp. 1): 60% | Number of vessels (% increase compared to control) ([6]; 10^−5 M, Exp. 2): 185% | Number of vessels (% increase compared to control) ([6]; 10^−6 M, Exp. 2): 121% | Number of vessels (% increase compared to control) ([6]; 10^−7 M, Exp. 1): 294% | Number of vessels (% increase compared to control) ([6]; 10^−7 M, Exp. 2): 118% | Number of vessels (% increase compared to control) ([6]; 10^−7 M, Exp. 3): 139% | Number of vessels (% increase compared to control) ([6]; 10^−8 M, Exp. 2): 223% | Number of vessels (% increase compared to control) ([6]; 10^−9 M, Exp. 1): 108% | Number of vessels (% increase compared to control) ([6]; 10^−9 M, Exp. 2): 61% | Number of vessels (% increase compared to control) ([6]; 10^−9 M, Exp. 3): 197% | vessels within the Matrigel compared to control Matrigel ([6]; mixed with Matrigel before implantation, 7 days): much greater number of vessels | increase in survival of the flaps compared to the controls [7]: 10% | concentration of maximum mitogenic effect [8]: 10^−9 M | growth of endothelial cells ([8]; in vitro): significantly stimulates the growth | concentration of maximum mitogenic effect ([9]; EA.hy926): 10^−9 M | growth of endothelial cells ([9]; EA.hy926, in vitro): significantly stimulates the growth | neovascularization of CAM [1]: significantly induced neovascularization | vascularization of abdominal walls (angiography) ([10]; 5 μg/kg/injection into abdominal muscle, twice a day, sacrifice day 8): more developed vascularization | vascularization of abdominal walls (angiography) ([10]; 50 μg/kg/injection into abdominal muscle): No significant modification of the vascularization

FGFb: fibroblast growth factor used as comparison angiogenic factor
Number of vessels (% increase compared to control) ([6]; 50 ng/ml, Exp. 2): 297%

— patent US7235532B2, “Angiogenic agents and their uses” (Centre National de la Recherche Scientfique, priority 2000, dated 2007)
